The supplement of paper PMC10307832

How the values were obtained:
Experiment in all cases: relative viability (nuclei count vs DMSO), 5 days (fraction); higher = more cells survive
Idelalisib + Pemetrexed = compound: CC[C@H](Nc1ncnc2[nH]cnc12)c1nc2cccc(F)c2c(=O)n1-c1ccccc1 [Idelalisib] + Nc1nc2[nH]cc(CCc3ccc(C(=O)N[C@@H](CCC(=O)O)C(=O)O)cc3)c2c(=O)[nH]1 [Pemetrexed] (partner 0.2 µM)
How it was run: (§1)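 Five library-drug doses in √10 steps were combined with a fixed anchor-drug dose, or a single drug was given alone, by pin tool to lung cancer cell lines in 1536-well plates the day after seeding. Nuclei were stained and counted after 5 days. Relative viability is the nuclei count in treated wells over that in vehicle wells, taken as the median of duplicate plates.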

Pemetrexed + OSI-027 = compound: Nc1nc2[nH]cc(CCc3ccc(C(=O)N[C@@H](CCC(=O)O)C(=O)O)cc3)c2c(=O)[nH]1 [Pemetrexed] + COc1cccc2cc(-c3nc([C@H]4CC[C@H](C(=O)O)CC4)n4ncnc(N)c34)[nH]c12 [OSI-027] (partner 0.5 µM)
How it was run: as §1

Idelalisib + Luminespib = compound: CC[C@H](Nc1ncnc2[nH]cnc12)c1nc2cccc(F)c2c(=O)n1-c1ccccc1 [Idelalisib] + CCNC(=O)c1noc(-c2cc(C(C)C)c(O)cc2O)c1-c1ccc(CN2CCOCC2)cc1 [Luminespib] (partner 0.01 µM)
How it was run: as §1

Idelalisib = compound: CC[C@H](Nc1ncnc2[nH]cnc12)c1nc2cccc(F)c2c(=O)n1-c1ccccc1 [Idelalisib]
How it was run: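 For viability, nuclei in each treated well were divided by nuclei in vehicle wells and the median across plates was taken. Lung cancer cell lines in 1536-well plates were pinned with five library-drug doses (not always all listed) spaced by √10, cultured 5 days without medium change, and imaged at 4× after Hoechst staining, with plates passing only at control CV below 25% and at least one doubling.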

Cell Line	relative viability (Idelalisib + Pemetrexed; first compound 0.04 µM)	relative viability (Idelalisib + Pemetrexed; first compound 0.1265 µM)	relative viability (Idelalisib + Pemetrexed; first compound 0.4 µM)	relative viability (Idelalisib + Pemetrexed; first compound 1.265 µM)	relative viability (Idelalisib + Pemetrexed; first compound 4 µM)	relative viability (Pemetrexed + OSI-027; first compound 0.002 µM)	relative viability (Pemetrexed + OSI-027; first compound 0.006325 µM)	relative viability (Pemetrexed + OSI-027; first compound 0.02 µM)	relative viability (Pemetrexed + OSI-027; first compound 0.06325 µM)	relative viability (Pemetrexed + OSI-027; first compound 0.2 µM)	relative viability (Idelalisib + Luminespib; first compound 0.04 µM)	relative viability (Idelalisib + Luminespib; first compound 0.1265 µM)	relative viability (Idelalisib + Luminespib; first compound 0.4 µM)	relative viability (Idelalisib + Luminespib; first compound 1.265 µM)	relative viability (Idelalisib + Luminespib; first compound 4 µM)	relative viability (Idelalisib; 0.04 µM)	relative viability (Idelalisib; 0.1265 µM)	relative viability (Idelalisib; 0.4 µM)	relative viability (Idelalisib; 1.265 µM)	relative viability (Idelalisib; 4 µM)
NCI-H661	0.973	0.926	0.911	0.952	0.924	0.782	0.711	0.767	0.698	0.694	0.985	0.907	0.85	0.987	1.04	1.07	0.976	0.98	1.01	0.994
NCI-H838	0.253	0.238	0.225	0.237	0.257	0.454	0.292	0.379	0.244	0.197	0.235	0.346	0.273	0.339	0.243	0.958	0.993	0.851	0.921	0.753
NCI-H1355	1.03	1.04	0.926	1.09	1.01	0.391	0.389	0.466	0.509	0.387	0.672	0.779	0.531	0.628	0.602	1.03	1	0.871	0.961	0.861
NCI-H1395	0.915	0.859	0.804	0.83	0.748	0.6	0.641	0.727	0.675	0.694	0.675	0.72	0.662	0.694	0.645	1.07	0.991	0.846	0.912	0.741
NCI-H1437	0.34	0.315	0.311	0.317	0.268	–	0.828	0.803	0.432	0.346	1.11	1.15	1.05	1.22	1.18	1.01	0.995	0.965	1.12	1.05
NCI-H1563	0.845	0.73	0.714	0.757	0.732	0.731	0.695	0.803	0.728	0.778	0.562	0.543	0.557	0.519	0.5	0.96	0.997	0.909	0.946	0.876
NCI-H1650	0.276	0.43	0.373	0.382	0.319	0.674	0.531	0.714	0.356	0.304	0.18	0.191	0.198	0.219	0.185	0.984	0.907	0.882	0.91	0.815
NCI-H1651	0.634	0.355	0.537	0.522	0.59	0.61	0.66	0.805	0.624	0.717	0.789	1	0.832	0.809	0.605	1.01	1.01	0.885	0.965	0.938
